Target: human M3 receptors (Homo sapiens, UniProt P20309)
Format: binding
Conditions: human clonal line TE671/RD

human M3 receptors, sequence (P20309 whole entry): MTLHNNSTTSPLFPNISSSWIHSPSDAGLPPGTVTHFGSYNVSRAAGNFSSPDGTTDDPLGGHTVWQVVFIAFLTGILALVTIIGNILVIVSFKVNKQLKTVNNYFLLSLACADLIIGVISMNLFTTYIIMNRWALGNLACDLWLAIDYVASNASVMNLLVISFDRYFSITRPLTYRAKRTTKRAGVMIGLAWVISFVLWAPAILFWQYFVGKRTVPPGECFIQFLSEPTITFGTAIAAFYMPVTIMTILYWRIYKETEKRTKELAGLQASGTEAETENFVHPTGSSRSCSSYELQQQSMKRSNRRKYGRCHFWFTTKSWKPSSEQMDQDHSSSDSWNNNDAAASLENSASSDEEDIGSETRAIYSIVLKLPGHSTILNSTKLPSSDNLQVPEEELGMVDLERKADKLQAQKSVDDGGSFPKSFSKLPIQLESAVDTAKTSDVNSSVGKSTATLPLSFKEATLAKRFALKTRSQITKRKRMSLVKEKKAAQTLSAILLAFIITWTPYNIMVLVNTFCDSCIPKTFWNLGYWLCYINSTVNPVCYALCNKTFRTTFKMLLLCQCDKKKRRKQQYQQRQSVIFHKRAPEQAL

Structure (SMILES) | ability to inhibit [3H]QNB binding at muscarinic sites
O=C(c1c[nH]c2ccccc12)N1CC(c2cccnc2)C2C1C1CCN2CC1 (stereo not drawn) [Compound 4, 5-(1H-Indol-3-ylcarbonyl)-3-pyridin-3-yl-1,5-diazatricyclo[5.2.2.0<2,6>]undecane] | None of the compounds was able to inhibit [^3H]QNB binding
COc1cccc2cc(C(=O)N3CC(c4cccnc4)C4C3C3CCN4CC3)oc12 (stereo not drawn) [Compound 2, 5-(7-Methoxybenzofuran-2-ylcarbonyl)-3-pyridin-3-yl-1,5-diazatricyclo[5.2.2.0<2,6>]undecane] | None of the compounds was able to inhibit [^3H]QNB binding
O=C(c1cc2ccccc2o1)N1CC(c2cccnc2)C2C1C1CCN2CC1 (stereo not drawn) [Compound 1, 5-(Benzofuran-2-ylcarbonyl)-3-pyridin-3-yl-1,5-diazatricyclo[5.2.2.0<2,6>]undecane] | None of the compounds was able to inhibit [^3H]QNB binding

Source: patent publication US7732607B2 (priority 2005, dated 2010)
